What was measured:
Serine protease 1 = Serine protease 1 (Rattus norvegicus, UniProt P00762); experiment: Enzyme Assay: Inhibition constant of the compound against Trypsin
Prothrombin = Prothrombin (Rattus norvegicus, UniProt P18292); experiment: Enzyme Assay: Inhibition constant of the compound against Thrombin
Plasminogen = Plasminogen (Rattus norvegicus, UniProt Q01177); experiment: Enzyme Assay: Inhibition constant of the compound against Plasmin
Sequence of Plasminogen (Q01177 97-581 limits assumed): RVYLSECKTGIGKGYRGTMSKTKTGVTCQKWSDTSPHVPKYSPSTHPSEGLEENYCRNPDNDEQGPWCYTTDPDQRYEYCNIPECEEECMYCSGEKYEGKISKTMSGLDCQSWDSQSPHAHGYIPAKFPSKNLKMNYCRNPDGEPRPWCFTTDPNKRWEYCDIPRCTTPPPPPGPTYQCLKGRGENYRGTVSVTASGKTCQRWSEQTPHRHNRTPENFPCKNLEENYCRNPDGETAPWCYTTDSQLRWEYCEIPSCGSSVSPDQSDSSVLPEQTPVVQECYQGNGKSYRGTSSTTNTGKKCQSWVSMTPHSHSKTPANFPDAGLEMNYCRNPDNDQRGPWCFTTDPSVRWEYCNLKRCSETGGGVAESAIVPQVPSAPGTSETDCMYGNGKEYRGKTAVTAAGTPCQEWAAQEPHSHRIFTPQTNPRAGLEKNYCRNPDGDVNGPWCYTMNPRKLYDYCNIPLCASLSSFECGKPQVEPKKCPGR
Sequence of Plasminogen (Q01177 582-812 limits assumed): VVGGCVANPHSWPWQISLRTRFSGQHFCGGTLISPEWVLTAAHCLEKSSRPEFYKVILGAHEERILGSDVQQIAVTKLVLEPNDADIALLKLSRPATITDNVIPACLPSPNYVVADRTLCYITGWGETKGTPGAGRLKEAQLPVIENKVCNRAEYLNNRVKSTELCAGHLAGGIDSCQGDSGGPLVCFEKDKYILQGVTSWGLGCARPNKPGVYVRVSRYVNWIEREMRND

Sequence of Serine protease 1 (P00762 whole entry): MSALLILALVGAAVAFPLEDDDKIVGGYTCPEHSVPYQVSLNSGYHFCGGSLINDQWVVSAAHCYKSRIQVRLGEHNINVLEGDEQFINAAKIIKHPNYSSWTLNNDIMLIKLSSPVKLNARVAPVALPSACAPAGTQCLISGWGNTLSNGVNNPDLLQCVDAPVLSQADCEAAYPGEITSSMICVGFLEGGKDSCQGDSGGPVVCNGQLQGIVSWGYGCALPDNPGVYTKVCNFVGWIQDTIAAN

Structure (SMILES) | Ki (Serine protease 1) [nM] | Ki (Prothrombin) [nM] | Ki (Plasminogen) [nM]
N=C(N)c1ccc(CNC(=O)CNC(=O)[C@@H](CO)NS(=O)(=O)Cc2cccc(C(=O)O)c2)cc1 | 720 |  | 
N=C(N)c1ccc(CNC(=O)[C@H](CCCN=C(N)N)NC(=O)[C@@H](CO)NS(=O)(=O)Cc2ccccc2)cc1 | 7 |  | 

The next lines start with the values.

Ki (Serine protease 1) [nM] | Ki (Prothrombin) [nM] | Ki (Plasminogen) [nM] | Structure (SMILES)
280 |  |  | N=C(N)c1ccc(CNC(=O)CNC(=O)[C@@H](CO)NS(=O)(=O)Cc2ccc(CN)cc2)cc1
6.8 |  |  | N=C(N)c1ccc(CNC(=O)[C@H](CCCCN)NC(=O)[C@@H](CO)NS(=O)(=O)Cc2ccccc2)cc1
410 | 1600 | 37000 | N=C(N)c1ccc(CNC(=O)CNC(=O)[C@@H](CO)NS(=O)(=O)Cc2ccncc2)cc1
